Assay results published in patent US20030013660A1, “Dioxolane analogs for improved inter-cellular delivery” (Shire BioChem Inc., priority 2000, published 2003).
Like-named read-outs stand apart in the source and are kept apart here.

Columns and labels:
Assay in all cases: 3H-TdR (3H-thymidine) incorporation assay at 72 hr
H-460 = format: cell-based, Human
MCF-7 = format: cell-based, Human
SF-268 = format: cell-based, Human
CCRF-CEM = format: cell-based
Procedure: (§1) Table of IC50 Values (μM) for Controls
(§2) Exposition of 24 hr to drug, wash, incubated for another 48 hr (total of 72 hr assay)
(§3) (3H-Thymidine Incorporation Assay)

CEM/dCK- = format: cell-based; conditions: for Factor* (Resistance Factor = Ratio of dCK- on Wild-type CCRF-CEM): ratio of IC50 CEM/dCK- to CCRF-CEM, 24 h
Procedure: as §1, §2, §3

[1] = Homo sapiens, NCI-H460, read-out: IC50 H-460 24 h, 24 h drug exposure, wash, another 48 hr, 3H-TdR incorporation at 72 hr
[2] = Homo sapiens, MCF7, read-out: IC50 MCF-7 24 h, 24 h drug exposure, wash, another 48 hr, 3H-TdR incorporation at 72 hr
[3] = Homo sapiens, SF-268, read-out: IC50 SF-268 24 h, 24 h drug exposure, wash, another 48 hr, 3H-TdR incorporation at 72 hr
[4] = Homo sapiens, CCRF-CEM, read-out: IC50 CCRF-CEM 24 h, 24 h drug exposure, wash, another 48 hr, 3H-TdR incorporation at 72 hr
[5] = Homo sapiens, CCRF-CEM, read-out: IC50 CEM/dCK- 24 h, 24 h drug exposure, wash, another 48 hr, deoxycytidine kinase-deficient CCRF-CEM
[6] = Homo sapiens, NCI-H460, read-out: IC50 H-460 24 h
[7] = Homo sapiens, MCF7, read-out: IC50 MCF-7 24 h
[8] = Homo sapiens, SF-268, read-out: IC50 SF-268 24 h
[9] = Homo sapiens, CCRF-CEM, read-out: IC50 CCRF-CEM 24 h
[10] = Homo sapiens, CCRF-CEM, read-out: IC50 CEM/dCK- 24 h

Row | SMILES | IC50 (H-460; [1]) [nM] | IC50 (MCF-7; [2]) [nM] | IC50 (SF-268; [3]) [nM] | IC50 (CCRF-CEM; [4]) [nM] | IC50 (CEM/dCK-; [5]) [nM] | Factor* (Resistance Factor = Ratio of dCK- on Wild-type CCRF-CEM) (CEM/dCK-) | IC50 (H-460; [6]) [nM] | IC50 (MCF-7; [7]) [nM] | IC50 (SF-268; [8]) [nM] | IC50 (CCRF-CEM; [9]) [nM] | IC50 (CEM/dCK-; [10]) [nM] | IC50 (H-460; read-out: IC50 H-460 24 h, 24 h drug exposure, wash, another 48 hr, 3H-TdR incorporation at 72 hr, HYDROCHLORIDE) [nM] | IC50 (MCF-7; read-out: IC50 MCF-7 24 h, 24 h drug exposure, wash, another 48 hr, 3H-TdR incorporation at 72 hr, HYDROCHLORIDE) [nM] | IC50 (SF-268; read-out: IC50 SF-268 24 h, 24 h drug exposure, wash, another 48 hr, 3H-TdR incorporation at 72 hr, HYDROCHLORIDE) [nM] | IC50 (CCRF-CEM; read-out: IC50 CCRF-CEM 24 h, 24 h drug exposure, wash, another 48 hr, 3H-TdR incorporation at 72 hr, HYDROCHLORIDE) [nM] | IC50 (CEM/dCK-; read-out: IC50 CEM/dCK- 24 h, 24 h drug exposure, wash, another 48 hr, deoxycytidine kinase-deficient CCRF-CEM, HYDROCHLORIDE) [nM]
1 | Cl.Nc1ccn([C@@H]2CO[C@H](COC(=O)Oc3ccc([N+](=O)[O-])cc3)O2)c(=O)n1 [Compound 88, 1-[2-(4-NITRO- PHENOXYCARBONYLOXYMETHY L)-[1,3]DIOXOLAN-4-YL]- 2-OXO-1,2-DIHYDRO- PYRIMIDIN-4-YL- AMMONIUM; CHLORIDE] | 140 | 190 | 610 | 88 | 82000 | 931 |  |  |  |  |  |  |  |  |  | 
2 | O=C(O)C(F)(F)F.O=c1nc(NC/C=C/c2ccccc2)ccn1[C@@H]1CO[C@H](CO)O1 [Compound 89, 1-(2-HYDROXYMETHYL- [1,3]DIOXOLAN-4-YL)-4- (3-CINNAMYL)-1H- PYRIMIDIN-2-ONE TRIFLUORO-ACETATE SALT] | 3800 | 220 | 11000 | 2500 | > 100000 | 40 |  |  |  |  |  |  |  |  |  | 
3 | Nc1ccn([C@@H]2CO[C@H](COC/C=C/c3ccccc3)O2)c(=O)n1.O=C(O)C(F)(F)F [Compound 90, 4-AMINO-1-[2-(3- CINNAMYLOXYMETHYL)- [1,3]DIOXOLAN-4-YL]-1H- PYRIMIDIN-2-ONE TRIFLUOROACETATE SALT] | 95000 | 61000 | > 100000 | 65000 | > 100000 | 1.5 |  |  |  |  |  |  |  |  |  | 
4 | CC(OC[C@H]1OC[C@@H](n2ccc(N)nc2=O)O1)OC1CCCCC1 (stereo partly shown) [Compound 92, 4-AMINO-1-[2-(1- CYCLOHEXYLOXY- ETHOXYMETHYL)- [1,3]DIOXOLAN-4-YL]-1H- PYRIMIDIN-2-ONE] | 2100 | 1600 | 4200 | 1300 | > 100000 | 77 |  |  |  |  |  |  |  |  |  | 
5 | O=C(Nc1ccn([C@@H]2CO[C@H](COC(=O)C34CC5CC(CC(C5)C3)C4)O2)c(=O)n1)OCc1ccccc1 [Compound 101, ADAMANTANE-1-CARBOXYLIC ACID 4-(4- BENZYLOXYCARBONYLAMINO- 2-OXO-2H-PYRIMIDIN-1- YL)-[1,3]DIOXOLAN-2- YLMETHYL ESTER] | 330 | 410 | 2100 | 360 | 16000 | 44 |  |  |  |  |  |  |  |  |  | 
6 | O=C(Nc1ccn([C@@H]2CO[C@H](COC(=O)C34CC5CC(CC(C5)C3)C4)O2)c(=O)n1)C12CC3CC(CC(C3)C1)C2 [Compound 102, ADAMANTANE-1-CARBOXYLIC ACID 4-{4-[(ADAMANTANE- 1-CARBONYL)-AMINO]-2- OXO-2H-PYRIMIDIN-1-YL}- [1,3]DIOXOLAN-2- YLMETHYL ESTER] | 190 | 1700 | 1000 | 410 | 11000 | 27 |  |  |  |  |  |  |  |  |  | 
7 | O=C(Nc1ccn([C@@H]2CO[C@H](COC(=O)Oc3ccc(Cl)cc3)O2)c(=O)n1)Oc1ccc(Cl)cc1 [Compound 103] |  |  |  |  |  | 4,545 | 52 | 18 | 63 | 11 | 50000 |  |  |  |  | 
8 | O=C(Nc1ccn([C@@H]2CO[C@H](CO)O2)c(=O)n1)Oc1ccc(Cl)cc1.O=C(O)C(F)(F)F [Compound 104, [1-(2-HYDROXYMETHYL- [1,3]DIOXOLAN-4-YL)-2- OXO-1,2-DIHYDRO- […]-4-YL]- CARBAMIC ACID 4-CHLORO- PHENYL ESTER TRIFLUOROACETATE SALT] |  |  |  |  |  | >476 | 270 | 470 | 470 | 210 | > 100000 |  |  |  |  | 
9 | Nc1ccn([C@@H]2CO[C@H](COC(=O)Oc3ccc(Cl)cc3)O2)c(=O)n1.O=C(O)C(F)(F)F [Compound 105, CARBONIC ACID 4-(4- AMINO-2-OXO-2H- PYRIMIDIN-1-YL)- [1,3]DIOXOLAN-2- YLMETHYL ESTER 4- CHLORO-PHENYL ESTER TRIFLUOROACETATE SALT] | 80 | 68 | 71 | 33 | 79000 | 2393 |  |  |  |  |  |  |  |  |  | 
10 | CC(C(=O)OC[C@H]1OC[C@@H](n2ccc(N)nc2=O)O1)c1ccccc1.Cl (stereo partly shown) [Compound 106, HYDROCHLORIDE] |  |  |  |  |  |  |  |  |  |  |  | 14 | 37 | 95 | 10 | 46000
11 | O=C(NCc1ccccc1)Nc1ccn([C@@H]2CO[C@H](CO)O2)c(=O)n1 [Compound 108, 1-BENZYL-3-[1-(2- HYDROXYMETHYL- [1,3]DIOXOLAN-4-YL)-2- OXO-1,2-DIHYDRO- PYRIMIDIN-4-YL]-UREA] | 1800 | 27000 | 3800 | 3400 | > 100000 | >29 |  |  |  |  |  |  |  |  |  | 
12 | O=C(NCc1ccccc1)Nc1ccn([C@@H]2CO[C@H](COC(=O)NCc3ccccc3)O2)c(=O)n1 [Compound 109, BENZYL-CARBAMIC ACID 4- [4-(3-BENZYL-UREIDO)-2- OXO-2#H!-PYRIMIDIN-1- YL]-[1,3]DIOXOLAN-2- YLMETHYL ESTER] | 2600 | 31000 | 4800 | 1000 | > 100000 | >100 |  |  |  |  |  |  |  |  |  | 
13 | CC(C)(C)OC(=O)N(CCCCC(=O)OC[C@H]1OC[C@@H](n2ccc(N)nc2=O)O1)Cc1ccccc1 [Compound 111, 5-(BENZYL-TERT- BUTOXYCARBONYL-AMINO)- PENTANOIC ACID 4-(4- AMINO-2-OXO-2H- PYRIMIDIN-1-YL)- [1,3]DIOXOLAN-2- YLMETHYL ESTER] | 0.13 | 0.26 | 2.1 | 0.2 | 2600 | 13000 |  |  |  |  |  |  |  |  |  | 
14 | COc1cc2c(cc1OC)C(=O)/C(=C/c1cc(C)c(OC(=O)OC[C@H]3OC[C@@H](n4ccc(N)nc4=O)O3)c(C)c1)C2 [Compound 112] |  |  |  |  |  | 10 | 11 | 16 | 6.7 | 5.8 |  |  |  |  |  | 
15 | COC1(OC[C@H]2OC[C@@H](n3ccc(N)nc3=O)O2)CCCCC1 [Compound 113, 4-AMINO-1-[2-(1- METHOXY- CYCLOHEXYLOXYMETHYL)- [1,3]DIOXOLAN-4-YL]-1H- PYRIMIDIN-2-ONE] | 240 | 480 | 1100 | 60 | > 100000 | >1667 |  |  |  |  |  |  |  |  |  | 
16 | CC(C)(C)OC(=O)N(CCCCC(=O)Nc1ccn([C@@H]2CO[C@H](COC(=O)CCCCN(Cc3ccccc3)C(=O)OC(C)(C)C)O2)c(=O)n1)Cc1ccccc1 [Compound 114, 5-(BENZYL-TERT- BUTOXYCARBONYL-AMINO)- PENTANOIC ACID 4-{4-[5- (BENZYL-TERT- BUTOXYCARBONYL-AMINO)- PENTANOYLAMINO]-2-OXO- 2H!PYRIMIDIN-1-YL}- [1,3]DIOXOLAN-2- YLMETHYL ESTER] | 66 | 17 | 41 | 16 | 8000 | 500 |  |  |  |  |  |  |  |  |  | 
